Read-outs that look alike come from different tables or passages of the source.
Assays:
Type in all cases: cell-based, human
[1] = system: p-ERK in MIA PaCa2 cells (Kras G12C mutation); experiment: Cell p-ERK detection experiment (HTRF) in MIA PaCa2 cells; conditions: compound 2 hours
Method: MIA PaCa2 was a human pancreatic cancer cell line with Kras G12C mutation, cultured in 10% FBS+2.5% Horse serum DMEM medium. The cells in the logarithmic growth phase were taken, digested with enzyme EDTA, collected, counted and 2.5E4 cells were seeded in a 96-well cell culture plate, cultured overnight. DMSO was used to prepare 1000× compound 3.16-fold gradient concentration stock solution, and medium was used to dilute 200-fold to 5× compound stock solution. On the second day after cell seeding, 5× compound stock solution was added to each cell culture well, the final concentration was 1×, and DMSO content was 0.1%. DMSO was used as an experimental control (control). After the compound was added and cultured for two hours, the remaining medium was removed. 50 ul cell lysis buffer was added to each well, mixed and incubated for 30 minutes, then 16 ul of the mixture was transferred to a 96-well plate with a non-transparent white bottom, and 16 ul cell lysis buffer was added to blank wells. After the completion of the transfer, 4 ul p-ERK HTRF antibody mixture was added to each well, incubated for 4 hours and the fluorescence value was read. The compound inhibition rate IR (%)=(RLU control-RLU compound)/(RLU control-RLU blank)×100% was calculated, Prism 8 four-parameter method was used to fit the compound's gradient dilution concentration and the corresponding cell proliferation inhibition rate, and the IC50 value was calculate.

[2] = system: MIA PaCa-2 cells (Kras G12C mutation); experiment: Cell proliferation inhibition experiment, 3D model, CellTiter-Glo (MIA PaCa-2); conditions: MIA PaCa-2, 3D sphere plate, 5 days, read-out: MIA-PaCa2 IC50
Method: MIA PaCa2 was a human pancreatic cancer cell line with Kras G12C mutation, cultured in 10% FBS+2.5% Horse serum DMEM medium; A549 was a human lung adenocarcinoma cell line with Kras G12S mutation, cultured in 10% FBS F-12K medium. The cells in the logarithmic growth phase were taken, digested with enzyme EDTA, collected, counted and 200 MIA PaCa-2 or 400 A549 cells were seeded in a 384-well sphere plate respectively, cultured overnight to establish a 3D cell model. DMSO was used to prepare 1000× compound 3.16-fold gradient concentration stock solution, and medium was used to dilute 100-fold to 10× compound stock solution. On the second day after cell seeding, 10× compound stock solution was added to each cell culture well, the final concentration was 1×, and DMSO content was 0.1%. DMSO was used as an experimental control (control), medium as the blank control (blank). After the compound and cells were added and cultured for 5 days, 30 μl CellTiter-Glo working solution was added to each well, mixed and incubated for 30 minutes. After 30 minutes at room temperature, 40 μl of the mixture was transferred to a 384-well plate with a non-transparent white bottom, the luminescence chemiluminescence value was read, and the cells proliferation inhibition rate IR (%)=(RLU control-RLU compound)/(RLU control-RLU blank)×100% was calculated, XLFit four-parameter method was used to fit the compound's gradient dilution concentration and the corresponding cell proliferation inhibition rate, and the IC50 value was calculate.

[3] = system: NCI-H358 cells (Kras G12C mutation); experiment: Cell proliferation inhibition experiment, 3D model, CellTiter-Glo (NCI-H358); conditions: NCI-H358, 3D sphere plate, 5 days, 2% FBS
Method in brief: (§1)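 Luminescent ATP read-out (CellTiter-Glo) after 5-day compound treatment gave % inhibition relative to DMSO control and medium blank, fitted four-parameter for IC50. Spheroids were formed overnight in 2% FBS medium from 800 H358 or 400 A549 cells per well; dilutions were 3.16-fold, final DMSO 0.1%.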

[4] = system: A549 cells (Kras G12S mutation); experiment: Cell proliferation inhibition experiment, 3D model, CellTiter-Glo (A549); conditions: A549, 3D sphere plate, 5 days, 2% FBS
Method in brief: as §1

[5] = Homo sapiens, MIA PaCa-2, 120 h

Compound	IC50 ([1]; Homo sapiens, MIA PaCa-2, 2 h)	IC50 [2, 5]	IC50 ([3]; Homo sapiens, NCI-H358, 120 h)	IC50 ([4]; Homo sapiens, A549, 120 h)	IC50 [1]	IC50 [3]	IC50 [4]	IC50 [2]
C=CC(=O)N1CCN2c3nc(=O)n(-c4nccnc4C(C)C)c4nc(-c5ccccc5F)c(Cl)c(c34)OC[C@H]2C1 [Compound Z104-1]	–	12 nM	–	11.3 µM	14 nM	8 nM	–	–
C=CC(=O)N1CCN2c3nc(=O)n(-c4nccnc4C(C)C)c4nc(-c5c(O)cccc5F)c(Cl)c(c34)OC[C@H]2C1 [Compound Z105-2]	–	11 nM	–	–	20 nM	5 nM	> 30 µM	–
C=CC(=O)N1CCN2c3nc(=O)n(-c4c(C)ncnc4C(C)C)c4nc(-c5ccccc5F)c(Cl)c(c34)OC[C@H]2C1 (single isomer, unassigned) [Compound Z95-2]	–	1 nM	–	–	5 nM	1 nM	> 10 µM	–
C=CC(=O)N1CCN2c3nc(=O)n(-c4c(C)ccnc4C(C)C)c4nc(-c5ccccc5F)c(Cl)c(c34)OC[C@H]2C1 (single isomer, unassigned) [Compound Z87-2]	–	2 nM	–	–	9 nM	1 nM	5.55 µM	–
C=CC(=O)N1CCN2c3nc(=O)n(-c4c(C)ccnc4C(C)C)c4nc(-c5ccc(F)cc5F)c(Cl)c(c34)OC[C@@H]2C1 (single isomer, unassigned) [Compound Z49-1]	–	–	–	–	64 nM	6 nM	> 10 µM	10 nM
C=CC(=O)N1CCN2c3nc(=O)n(-c4c(C)ccnc4C4CC4)c4nc(-c5c(O)cccc5F)c(F)c(c34)OC[C@H]2C1 (single isomer, unassigned) [Compound Z112-2]	–	–	–	–	502 nM	94 nM	> 30 µM	126 nM
C=CC(=O)N1CCN2c3nc(=O)n(-c4c(C)ncnc4C(C)C)c4nc(-c5cccc(F)c5F)c(Cl)c(c34)OC[C@H]2C1 (single isomer, unassigned) [Compound Z96-2]	–	2 nM	–	–	7 nM	2 nM	> 10 µM	–
C=CC(=O)N1CCN2c3nc(=O)n(-c4c(OC)ncnc4C(C)C)c4nc(-c5c(O)cccc5F)c(F)c(c34)OC[C@H]2C1 (single isomer, unassigned) [Compound Z111-2]	34 nM	13 nM	3 nM	> 30 µM	–	–	–	–
C=CC(=O)N1CCN2c3nc(=O)n(-c4c(C)ccnc4C(C)C)c4nc(-c5cccc(F)c5F)c(Cl)c(c34)OC[C@H]2C1 (single isomer, unassigned) [Compound Z77-1]	–	–	–	> 10 µM	58 nM	26 nM	–	–
C=CC(=O)N1CCN2c3nc(=O)n(-c4nccnc4C(C)C)c4nc(-c5c(O)cccc5F)c(Cl)c(c34)OC[C@H]2C1 (atropisomer, axis not shown) [Compound Z105-1]	–	–	–	> 30 µM	395 nM	38 nM	–	–
C=CC(=O)N1CCN2c3nc(=O)n(-c4c(C)ncnc4C(C)C)c4nc(-c5c(O)cccc5F)c(Cl)c(c34)OC[C@H]2C1 (single isomer, unassigned) [Compound Z88-1]	–	–	–	> 10 µM	356 nM	100 nM	–	–
C=CC(=O)N1CCN2c3nc(=O)n(-c4nccnc4C(C)C)c4nc(-c5ccccc5F)c(Cl)c(c34)OC[C@H]2C1 (atropisomer, axis not shown) [Compound Z104-2]	–	–	–	–	185 nM	28 nM	> 10 µM	–
C=CC(=O)N1CCN2c3nc(=O)n(-c4c(C)ccnc4C(C)C)c4nc(-c5c(O)cccc5F)c(Cl)c(c34)OC[C@@H]2C1 (single isomer, unassigned) [Compound Z24-1]	–	–	–	–	53 nM	16 nM	> 10 µM	–
C=CC(=O)N1CCN2c3nc(=O)n(-c4c(C)ccnc4C(C)C)c4nc(-c5c(O)cccc5F)c(F)c(c34)OC[C@H]2C1 (atropisomer, axis not shown) [Compound Z73-1]	–	–	–	–	116 nM	9 nM	> 10 µM	–

The remaining lines, values ahead:

IC50 ([1]; Homo sapiens, MIA PaCa-2, 2 h)	IC50 [2, 5]	IC50 ([3]; Homo sapiens, NCI-H358, 120 h)	IC50 ([4]; Homo sapiens, A549, 120 h)	IC50 [1]	IC50 [3]	IC50 [4]	IC50 [2]	Compound
59 nM	113 nM	12 nM	7.9 µM	–	–	–	–	C=CC(=O)N1CCN2c3nc(=O)n(-c4c(C)c(Cl)nn4C(C)C)c4nc(-c5ccccc5F)c(Cl)c(c34)OC[C@H]2C1 [Compound Z119]
182 nM	34 nM	9 nM	> 10 µM	–	–	–	–	C=CC(=O)N1CCN2c3nc(=O)n(-c4c(C)ccnc4C(C)C)c4nc(-c5ccc(Cl)cc5F)c(Cl)c(c34)OC[C@@H]2C1 [Compound Z65]
26 nM	26 nM	3 nM	8.89 µM	–	–	–	–	C=CC(=O)N1CCN2c3nc(=O)n(-c4c(C)nc(OC)nc4C(C)C)c4nc(-c5ccccc5F)c(Cl)c(c34)OC[C@H]2C1 [Compound Z116]
39 nM	7 nM	3 nM	> 10 µM	–	–	–	–	C=CC(=O)N1CCN2c3nc(=O)n(-c4c(C)ccnc4C(C)C)c4nc(-c5ccccc5C(F)(F)F)c(Cl)c(c34)OC[C@@H]2C1 [Compound Z66]
48 nM	10 nM	4 nM	> 10 µM	–	–	–	–	C=CC(=O)N1CCN2c3nc(=O)n(-c4c(C)ccnc4C(C)C)c4nc(-c5c(O)ccc(F)c5F)c(Cl)c(c34)OC[C@@H]2C1 [Compound Z53]
47 nM	7 nM	4 nM	> 30 µM	–	–	–	–	C=CC(=O)N1CCN2c3nc(=O)n(-c4c(OC)ncnc4C(C)C)c4nc(-c5c(O)cccc5F)c(F)c(c34)OC[C@H]2C1 [Compound Z111]
50 nM	8 nM	1 nM	> 10 µM	–	–	–	–	C=CC(=O)N1CCN2c3nc(=O)n(-c4c(C)ccnc4C(C)C)c4nc(-c5cccc(Cl)c5F)c(Cl)c(c34)OC[C@@H]2C1 [Compound Z61]
39 nM	74 nM	8 nM	4.63 µM	–	–	–	–	C=CC(=O)N1CCN2c3nc(=O)n(-c4c(Cl)cncc4C(C)C)c4nc(-c5ccccc5F)c(Cl)c(c34)OC[C@H]2C1 [Compound Z114]
14 nM	3 nM	1 nM	> 10 µM	–	–	–	–	C=CC(=O)N1CCN2c3nc(=O)n(-c4c(C)ccnc4C(C)C)c4nc(-c5ccccc5Cl)c(Cl)c(c34)OC[C@@H]2C1 [Compound Z58]
9 nM	2 nM	1 nM	12.8 µM	–	–	–	–	C=CC(=O)N1CCN2c3nc(=O)n(-c4c(C5CC5)ncnc4C4CC4)c4nc(-c5ccccc5F)c(Cl)c(c34)OC[C@H]2C1 [Compound Z93]
101 nM	24 nM	13 nM	> 10 µM	–	–	–	–	C=CC(=O)N1CCN2c3nc(=O)n(-c4c(C)ccnc4C(C)C)c4nc(-c5c(C)ccc6[nH]ncc56)c(Cl)c(c34)OC[C@H]2C1 [Compound Z86]
12 nM	3 nM	2 nM	> 10 µM	–	–	–	–	C=CC(=O)N1CCN2c3nc(=O)n(-c4c(C5CC5)ncnc4C4CC4)c4nc(-c5c(O)cccc5F)c(F)c(c34)OC[C@H]2C1 [Compound Z99]
–	3 nM	–	> 10 µM	22 nM	2 nM	–	–	C=CC(=O)N1CCN2c3nc(=O)n(-c4c(C)ccnc4C(C)C)c4nc(-c5c(O)cccc5F)c(F)c(c34)OC[C@H]2C1 [Compound Z73]
63 nM	–	5 nM	> 10 µM	–	–	–	–	C=CC(=O)N1CCN2c3nc(=O)n(-c4c(C)ccnc4C(C)C)c4nc(-c5c(O)cccc5F)c(C)c(c34)OC[C@H]2C1 [Compound Z72]
86 nM	–	4 nM	> 10 µM	–	–	–	–	C=CC(=O)N1CCN2c3nc(=O)n(-c4c(C)ncnc4C(C)C)c4nc(-c5c(O)cccc5F)c(Cl)c(c34)OC[C@H]2C1 [Compound Z88]
